Test results taken from ChEMBL document CHEMBL1156757, “Dihydroxyphenylisoindoline amides as orally bioavailable inhibitors of the heat shock protein 90 (hsp90) molecular chaperone” (J Med Chem, 2010).

Tests used:
[1] = Half life in rat; type: ADME, organism-based; settings: in vivo
[2] = Half life in mouse at 100 mg/kg, po; type: ADME, organism-based; set-up: dose 100 mg/kg, route oral; settings: in vivo
[3] = Half life in mouse at 20 mg/kg, iv; type: ADME, organism-based; set-up: dose 20 mg/kg, route intravenous; settings: in vivo
[4] = tested on: Liver microsomes; assay: Hepatic clearance in rat liver microsomes […]; type: ADME, Microsome
[5] = tested on: Mus musculus; assay: Free plasma concentration in mouse at 20 mg/kg, iv after 4 hrs; type: ADME, organism-based; set-up: dose 20 mg/kg, route intravenous; settings: in vivo
[6] = tested on: Mus musculus; assay: Free plasma concentration in mouse at 100 mg/kg, po after 1 hr; type: ADME, organism-based; set-up: dose 100 mg/kg, route oral; settings: in vivo
[7] = biological target: Heat shock protein HSP90 (Homo sapiens, UniProt P07900+P08238)
[8] = Clearance in rat; type: ADME, organism-based; settings: in vivo
[9] = AUC (0 to infinity) in rat at 10 mg/kg, po; type: ADME, organism-based; set-up: time infinity, dose 10 mg/kg, route oral; settings: plasma
[10] = tested on: Mus musculus; assay: Free plasma concentration in mouse at 20 mg/kg, iv after 1 hr; type: ADME, organism-based; set-up: dose 20 mg/kg, route intravenous; settings: in vivo
[11] = tested on: Mus musculus; assay: Free plasma concentration in mouse at 100 mg/kg, ip after 1 hr; type: ADME, organism-based; set-up: dose 100 mg/kg, route intraperitoneal; settings: in vivo
[12] = tested on: Mus musculus; assay: Free plasma concentration in mouse at 100 mg/kg, po after 4 hrs; type: ADME, organism-based; set-up: dose 100 mg/kg, route oral; settings: in vivo
[13] = tested on: Liver microsomes; assay: Hepatic clearance in human liver microsomes […]; type: ADME, Microsome
[14] = Volume of distribution in rat; type: ADME, organism-based; settings: in vivo
[15] = tested on: Mus musculus; assay: Free plasma concentration in mouse at 100 mg/kg, ip after 4 hrs; type: ADME, organism-based; set-up: dose 100 mg/kg, route intraperitoneal; settings: in vivo
[16] = AUC (0 to infinity) in rat at 2.5 mg/kg, iv; type: ADME, organism-based; set-up: time infinity, dose 2.5 mg/kg, route intravenous; settings: plasma
[17] = Oral bioavailability in rat; type: ADME, organism-based; settings: in vivo

SMILES	IC50 [7] [nM]	CLH [13] [µL/min]	other results
CCNC(=O)[C@H]1c2ccccc2CN1C(=O)c1cc(Cl)c(O)cc1O	300	7	half-life [1]: 5.2 h; half-life [2]: 8.3 h; half-life [3]: 5.2 h; CLH [4]: 0.2 µL/min; Cp(f) [5]: 76 nM; Cp(f) [6]: 810 nM; clearance [8]: 23.3 mL/min/kg; AUC(0-inf) [9]: 1300 ng·h/mL; Cp(f) [10]: 286 nM; Cp(f) [11]: 16000 nM; Cp(f) [12]: 330 nM; Vd [14]: 3.3 L/kg; Cp(f) [15]: 410 nM; AUC(0-inf) [16]: 1700 ng·h/mL; bioavailability [17]: 20%
O=C(NC1CCCCC1)[C@H]1CCCN1C(=O)c1cc(Cl)c(O)cc1O		9	
O=C(NCc1ccccc1)C1c2ccccc2CN1C(=O)c1cc(Cl)c(O)cc1O (stereo unspecified)	700	25	
CCCNC(=O)C1c2ccccc2CN1C(=O)c1cc(Cl)c(O)cc1O (stereo unspecified)		9	
CN(C)C(=O)[C@H]1CCCN1C(=O)c1cc(Cl)c(O)cc1O		< 7	
CNC(=O)C1c2ccccc2CN1C(=O)c1cc(Cl)c(O)cc1O (stereo unspecified)	1700	< 2	
Cc1ccccc1[C@H]1CCCN1C(=O)c1cc(Cl)c(O)cc1O	1000	129	
O=C(c1cc(Cl)c(O)cc1O)N1CCCC1		56	
O=C([C@H]1CCCN1C(=O)c1cc(Cl)c(O)cc1O)N1CCCC1		< 9	
O=C([C@H]1c2ccccc2CN1C(=O)c1cc(Cl)c(O)cc1O)N1CCCC1	600	11	half-life [1]: 7.9 h; CLH [4]: 0.2 µL/min; clearance [8]: 23.3 mL/min/kg; AUC(0-inf) [9]: 2900 ng·h/mL; Vd [14]: 8.1 L/kg; AUC(0-inf) [16]: 2100 ng·h/mL; bioavailability [17]: 35%
CCNC(=O)C1c2ccccc2CN1C(=O)c1cc(Cl)c(O)cc1O (stereo unspecified)	300	4.7	
C=CCNC(=O)C1c2ccccc2CN1C(=O)c1cc(Cl)c(O)cc1O (stereo unspecified)	1500	8.5	
CN(C)C(=O)C1c2ccccc2CN1C(=O)c1cc(Cl)c(O)cc1O (stereo unspecified)	1500	2.4	
O=C(C1c2ccccc2CN1C(=O)c1cc(Cl)c(O)cc1O)N1CCCC1 (stereo unspecified)	600	2	
CO[C@H]1/C=C\C=C(/C)C(=O)NC2=CC(=O)C(NCCN(C)C)=C(C[C@@H](C)C[C@H](OC)[C@H](O)[C@@H](C)/C=C(\C)[C@@H]1OC(N)=O)C2=O [ALVESPIMYCIN]		< 3	
